Laboratory results published in the supplement of paper PMC10331698.
± gives the standard deviation of the averaged measurements.

Assays:
Assay in all cases: level (log10 ratio to DMSO vehicle control); higher = higher biomarker level / cell amount than vehicle control
[1] = compound: O=C(O)C(F)(F)C(F)(F)C(F)(F)C(F)(F)F [Perfluoropentanoic acid]; settings: in DMSO
Method: (§1)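 BioMAP Diversity Plus panel of 12 human primary cell co-culture systems (3C, 4H, LPS, SAg, BT, BF4T, BE3C, CASM3C, HDF3CGF, KF3CT, MyoF, Mphg). Compounds were added 1 h before stimulation and left for 24 h (MyoF 48 h; BT 72 h for soluble read-outs or 6 d for IgG). Biomarkers were read by ELISA, cytotoxicity by SRB, PBMC viability and proliferation by Alamar Blue. Each well value was divided by the mean of 8 DMSO control wells on the same plate and log10 transformed; duplicate blinded samples were tested at 4 concentrations.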

[2] = compound: OCCCC(F)(F)C(F)(F)C(F)(F)C(F)(F)C(F)(F)C(F)(F)C(F)(F)F [7:3 Fluorotelomer alcohol]; settings: 6700 nM; in DMSO
Method: as §1

[3] = compound: O=C(O)C(F)(F)C(F)(F)C(F)(F)C(F)(F)C(F)(F)C(F)(F)C(F)(F)C(F)F [9-H-Perfluorononanoic acid]; settings: in DMSO
Method: as §1

[4] = compound: O=C(O)C(F)(F)C(F)(F)F [Perfluoropropanoic acid]; settings: in DMSO
Method: as §1

[5] = compound: O=C(O)C(F)(F)C(F)(F)C(F)(F)OC(F)(C(F)(F)F)C(F)(F)F [Perfluoro-4-isopropoxybutanoic acid]; settings: in DMSO
Method: as §1

[6] = compound: O=C(O)C(F)(F)C(F)(F)C(F)F [4H-Perfluorobutanoic acid]; settings: in DMSO
Method: as §1

[7] = compound: OCC(F)(F)OC(F)(F)C(F)(F)OC(F)(F)CO [1H,1H,8H,8H-Perfluoro-3,6-dioxaoctane-1,8-diol]; settings: in DMSO
Method: as §1

Test System | level (log10) ([1]; 6700 nM) | level (log10) ([1]; 20000 nM) | level (log10) ([1]; 60000 nM) | level (log10) [2] | level (log10) ([3]; 6700 nM) | level (log10) ([3]; 20000 nM) | level (log10) ([3]; 60000 nM) | level (log10) ([4]; 6700 nM) | level (log10) ([4]; 20000 nM) | level (log10) ([4]; 60000 nM) | level (log10) ([5]; 6700 nM) | level (log10) ([5]; 20000 nM) | level (log10) ([5]; 60000 nM) | level (log10) ([6]; 6700 nM) | level (log10) ([6]; 20000 nM) | level (log10) ([6]; 60000 nM) | level (log10) ([7]; 6700 nM) | level (log10) ([7]; 20000 nM) | level (log10) ([7]; 60000 nM)
HDF3CGF:CCL2/MCP-1 | -0.03 ± 0.017 | -0.054 ± 0.013 | -0.022 ± 0.048 | -0.0085 ± 0.0092 | -0.023 ± 0.028 | -0.0185 ± 0.044 | -0.0415 ± 0.052 | -0.022 ± 0.047 | -0.024 ± 0.04 | 0.017 ± 0.051 | 0.013 ± 0.0028 | 0.0335 ± 0.019 | 0.0425 ± 0.0021 | -0.0385 ± 0.021 | -0.018 ± 0.051 | 0.049 ± 0.0071 | 0.0015 ± 0.0092 | 0.0025 ± 0.012 | 0.026 ± 0.047
BE3C:MMP-9 | -0.0325 ± 0.0078 | -0.0105 ± 0.015 | 0.0215 ± 0.035 | 0.0055 ± 0.026 | 0.015 ± 0.02 | 0.0415 ± 0.00071 | 0.0255 ± 0.0021 | 0.0075 ± 0.025 | 0.0025 ± 0.018 | 0.0265 ± 0.012 | 0.0235 ± 0.033 | 0.0185 ± 0.044 | 0.0645 ± 0.067 | -0.0105 ± 0.019 | 0.02 ± 0.023 | -0.009 ± 0.02 | -0.0115 ± 0.028 | 0.02 ± 0.04 | -0.006 ± 0.013
CASM3C:HLA-DR | -0.019 ± 0.014 | -0.022 ± 0.023 | 0.003 ± 0.054 | 0.008 ± 0.0071 | -0.01 ± 0.0071 | -0.0145 ± 0.0092 | 0.0025 ± 0.012 | 0.015 ± 0.023 | -0.013 ± 0.011 | 0.0365 ± 0.0021 | -0.0205 ± 0.029 | -0.0315 ± 0.023 | -0.013 ± 0.04 | -0.007 ± 0.0028 | 0.0435 ± 0.033 | 0.006 ± 0.024 | 0.0315 ± 0.025 | 0.0075 ± 0.011 | 0.0045 ± 0.029
KF3CT:CCL2/MCP-1 | 0.002 ± 0.02 | -0.025 ± 0.025 | 0.0215 ± 0.05 | -0.0105 ± 0.005 | -0.04 ± 0.0028 | -0.0335 ± 0.0078 | 0.009 ± 0.065 | -0.0395 ± 0.0078 | -0.018 ± 0.028 | 0.0055 ± 0.06 | 0.0235 ± 0.039 | 0.032 ± 0.018 | 0.023 ± 0.052 | -0.0705 ± 0.0092 | -0.032 ± 0.0099 | -0.0115 ± 0.023 | -0.0075 ± 0.026 | -0.022 ± 0.011 | 0.0235 ± 0.061
CASM3C:Serum Amyloid A | -0.003 ± 0.0071 | -0.013 ± 0.011 | -0.0045 ± 0.033 | -0.0135 ± 0.028 | -0.0295 ± 0.035 | -0.02 | 0.0435 ± 0.053 | -0.05 ± 0.033 | -0.0755 ± 0.026 | -0.0465 ± 0.054 | -0.0025 ± 0.0078 | -0.0295 ± 0.013 | 0.0165 ± 0.081 | -0.056 ± 0.038 | -0.083 ± 0.055 | -0.0715 ± 0.11 | -0.0235 ± 0.044 | -0.0195 ± 0.043 | -0.036 ± 0.025
KF3CT:CD54/ICAM-1 | 0.004 ± 0.0057 | 0.001 ± 0.013 | 0.016 ± 0.028 | -0.022 ± 0.0071 | -0.0045 ± 0.016 | -0.024 ± 0.0014 | -0.0365 ± 0.0064 | -0.0135 ± 0.0092 | -0.0015 ± 0.0021 | 0.004 ± 0.0028 | 0.001 ± 0.016 | -0.035 ± 0.0071 | -0.0495 ± 0.016 | 0.005 ± 0.0028 | -0.0115 ± 0.0035 | -0.006 ± 0.011 | -0.004 ± 0.0014 | 0.008 ± 0.03 | 0.0135 ± 0.037
MyoF:bFGF | -0.021 ± 0.0014 | -0.0085 ± 0.0078 | -0.0055 ± 0.0035 | -0.006 ± 0.0028 | -0.0025 ± 0.021 | 0.0015 ± 0.012 | -0.0055 ± 0.018 | -0.0175 ± 0.016 | 0.01 ± 0.0028 | 0.015 ± 0.038 | -0.014 ± 0.016 | -0.0225 ± 0.026 | -0.004 ± 0.027 | -0.023 ± 0.016 | -0.007 ± 0.02 | 0.0045 ± 0.012 | -0.001 ± 0.016 | 0.0075 ± 0.011 | 0.004 ± 0.0057
KF3CT:uPA | 0.0015 ± 0.023 | 0 ± 0.0085 | 0.021 ± 0.0071 | -0.0075 ± 0.0064 | 0.006 ± 0.024 | 0.003 ± 0.024 | -0.0115 ± 0.00071 | -0.0085 ± 0.022 | 0.032 ± 0.027 | 0.0045 ± 0.021 | -0.002 ± 0.0028 | 0.0105 ± 0.0035 | 0.016 ± 0.0014 | 0.0125 ± 0.028 | 0.0275 ± 0.0064 | 0.007 ± 0.035 | -0.0045 ± 0.0092 | -0.011 ± 0.0085 | 0.0005 ± 0.021
lMphg:CD40 | 0.0225 ± 0.0092 | -0.0085 ± 0.0064 | 0.0175 ± 0.0078 | -0.0135 ± 0.0078 | 0.014 ± 0.011 | 0.003 ± 0.017 | -0.01 ± 0.024 | -0.0045 ± 0.021 | -0.0145 ± 0.023 | 0.004 ± 0.0028 | -0.012 ± 0.013 | -0.041 ± 0.034 | -0.027 ± 0.035 | 0.0065 ± 0.028 | -0.0035 ± 0.039 | 0.007 ± 0.024 | -0.015 ± 0.02 | -0.0845 ± 0.0035 | -0.0265 ± 0.0035
BE3C:MMP-1 | -0.015 ± 0.03 | -0.0175 ± 0.029 | 0.027 ± 0.047 | 0.016 ± 0.033 | 0.043 ± 0.045 | 0.061 ± 0.0028 | 0.204 ± 0.047 | -0.02 ± 0.041 | 0.001 ± 0.0014 | 0.03 ± 0.064 | -0.002 ± 0.017 | 0.004 ± 0.025 | 0.0605 ± 0.054 | -0.033 ± 0.059 | -0.0175 ± 0.0035 | 0.008 ± 0.051 | 0.0105 ± 0.011 | -0.013 ± 0.021 | 0.009 ± 0.052
CASM3C:IL-6 | -0.02 ± 0.028 | -0.028 ± 0.027 | 0.014 ± 0.047 | 0.0015 ± 0.012 | -0.012 ± 0.0071 | -0.036 ± 0.0042 | -0.0045 ± 0.05 | -0.0205 ± 0.056 | -0.025 ± 0.0071 | -0.0045 ± 0.035 | -0.0055 ± 0.019 | -0.002 ± 0.025 | 0.0285 ± 0.084 | -0.0125 ± 0.0035 | 0.0045 ± 0.023 | 0.0225 ± 0.021 | -0.017 ± 0.011 | -0.009 ± 0.0014 | 0.0215 ± 0.056
MyoF:TIMP-1 | -0.0195 ± 0.023 | -0.043 ± 0.034 | -0.002 ± 0.042 | 0.003 ± 0.017 | 0.0495 ± 0.044 | 0.0665 ± 0.019 | 0.117 ± 0.037 | 0.0645 ± 0.077 | 0.05 ± 0.047 | 0.0465 ± 0.12 | 0.0135 ± 0.059 | 0.0705 ± 0.083 | 0.0855 ± 0.1 | 0.0045 ± 0.039 | 0.023 ± 0.016 | 0.0465 ± 0.076 | -0.0015 ± 0.036 | 0.038 ± 0.025 | 0.052 ± 0.03
MyoF:Decorin | -0.015 ± 0.0028 | -0.0125 ± 0.0092 | 0.005 ± 0.048 | 0.0355 ± 0.059 | 0.0315 ± 0.0035 | 0.051 ± 0.0071 | 0.093 ± 0.016 | -0.0255 ± 0.073 | 0.002 ± 0.11 | 0.046 ± 0.089 | 0.008 ± 0.0057 | 0.023 ± 0.027 | 0.065 ± 0.061 | -0.005 ± 0.048 | 0.003 ± 0.064 | 0.0655 ± 0.088 | -0.0155 ± 0.011 | 0.003 ± 0.0071 | 0.02 ± 0.02
HDF3CGF:EGFR | 0.008 ± 0.02 | -0.0265 ± 0.013 | -0.008 ± 0.027 | -0.005 ± 0.12 | -0.011 ± 0.0028 | -0.024 ± 0.0057 | -0.034 ± 0.014 | -0.0215 ± 0.035 | -0.0145 ± 0.022 | 0.0055 ± 0.019 | -0.001 ± 0.034 | -0.0035 ± 0.022 | -0.012 ± 0.024 | -0.0155 ± 0.054 | 0.0005 ± 0.019 | 0.0725 ± 0.12 | 0.0035 ± 0.013 | 0.0175 ± 0.025 | 0.0205 ± 0.054
